From article PMC12677599 (Advanced Science, 2025) come the findings set out here.

Read-outs that look alike come from different tables or passages of the source. Where a SMILES comes first, the peptide text is derived from it. Where no end group is shown, it is not given here. [ ]: non-standard residue; d: D form. The star is where a group is joined. PEG4 = NCCOCCOCCOCCOCCC(=O)O; Piperidide = C1CCN(*)CC1 Where only a bound is given, the exact number is not on record here.

One series deals with H838 cell line. The class given is cell-based. The following applies: 24 h. On the procedure:
(§1) MTT assay was conducted as previously described.^[ [44] ^] Tumor cell lines (NCI‐H460, NCI‐H838, HT‐1080, MCF‐7, PC‐3, U‐251‐MG, and U‐87 MG) were seeded in 96‐well plates at a density of 8000 cells per well in a volume of 100 µL and cultured for 24 h. Normal cell lines (HaCaT, HMEC‐1, MRC‐5, and HEK‐293) were seeded in 96‐well plates at a density of 10 000 cells per well in a volume of 100 µL and cultured for 48 h. After that, only tumor cell lines were starved with 100 µL of SFM for a further 4–6 h. Subsequently, cells were treated with 100 µL of compound solutions with different concentrations for 24 h. Cells treated with SFM and 0.5% DMSO in SFM served as blank control and growth control, respectively. Ten µL of MTT solution (5 mg mL^−1) was added to each well, followed by an additional incubation period of 2 h for tumor cells and 4 h for normal cells. Finally, the solvent in each well was swapped with 100 µL of DMSO to dissolve the formazan crystals. The absorbance was measured by the plate reader at 570 nm.
(§2) The cell viability was calculated (1) Cellviability%=ODSamplegroup−ODBlank/ODGrowthgroup−ODBlank×100%

Another series deals with HMEC-1 normal cell line. The class given is cell-based. The conditions noted are these: 24 h. On the procedure: as §1, §2
A further series concerns HT-1080 cell line. Format: cell-based. The following applies: 24 h. On the procedure:
as §1, §2

In another series the test system is HaCaT normal cell line. The class given is cell-based. The following applies: 24 h. As for the experimental part:
as §1, §2

The test system of a further series is MRC-5 normal cell line. Format: cell-based. The following applies: 24 h. As for the experimental part: as §1, §2
Series [1] deals with H460 cell line. The series is described as follows: cells. The class given is cell-based. The conditions noted are these: 24 h. As for the experimental part: as §1, §2
In another series the test system is HEK-293 normal cell line. The series can be described thus: cells. Format: cell-based. The conditions noted are these: 24 h. As for the experimental part:
as §1, §2

The next series deals with erythrocytes. Format: cell-based. The following applies: red cells of horse, 2 h. As for the experimental part: Defibrinated horse blood (1 mL) was washed 3 times with 0.9% NaCl solution to remove plasma and then resuspended in 20 mL of 0.9% NaCl solution to obtain a red blood cell (RBC) suspension. Aliquots of the RBC suspension (100 µL) were incubated with 100 µL of compound solutions at concentrations ranging from 100 to 1.5625 µM (twofold serial dilution) for 2 h at 37 °C. RBCs treated with 0.9% NaCl solution and 1% Triton X‐100 solution served as blank and positive controls, respectively. Subsequently, the samples were centrifuged at 900 × g for 10 min, and the absorbance of the supernatant was measured at 570 nm.
The hemolysis ratio was calculated as (2) Hemolysis%=ODSamplegroup−ODBlank/ODPositivegroup−ODBlank×100%

The subject of series [2] is H460 cell line. Format: cell-based. The conditions noted are these: 24 h. As for the experimental part:
as §1
The antimicrobial stability evaluation was determined in the presence of physiological concentrations of serum. Twenty five µL of compound solutions with the concentration of 3 mM and 25 µL of human serum were mixed. The mixture was incubated for 0, 2, 4, 6, 12, 24 h at 37 °C and then incubated for 15 min at 60 °C to inactivate the enzymes. […]

Series [3] relates to 5-Fluorouracil-resistance H460 cell line. The class given is cell-based. The conditions noted are these: 24 h. On the procedure: as §1
(§3) Wild type H460 cells were cultured in a T‐75 flask and exposed to 30 µM of cisplatin. Cells were passed when the confluency reached 90%. The IC50 value of cisplatin on this cell line was evaluated every two passages. After the IC50 value was higher than 500 µM, the cultured medium was changed to normal CGM, and the cell line was cultured for another three passages. The IC50 value was evaluated again to make sure the resistance was stable. The other three resistance cell lines establishment process was similar. […] Parental NCI‐H460 cells were exposed to 10 µM 5‐fluorouracil, 2.5 µM paclitaxel, or 2.5 µM etoposide to generate 5‐fluorouracil‐resistant, paclitaxel‐resistant, and etoposide‐resistant cell lines, respectively.

Series [4] has as its system Cisplatin-resistance H460 cell line. The class given is cell-based. The following applies: 24 h. As for the experimental part: as §1, §3
The test system of series [5] is Etoposide-resistance (DR-EPT) H460 cell line. The class given is cell-based. The conditions noted are these: 24 h. As for the experimental part: as §1, §3
Series [6] deals with Paclitaxel-resistance (DR-PTX) H460 cell line. Format: cell-based. The following applies: 24 h. On the procedure: as §1, §3
Series [7] can be described thus: Compound remaining evaluation in human serum. The following applies: 50% human serum, 37 °C, HPLC peak area, n = 2; up to 6 h (239-4-Ac) or 24 h. Format: in vitro ADME. On the procedure: Compound solutions (50 µL, 3 mM) were mixed with human serum (50 µL) and incubated for 0, 2, 4, 6, 12, and 24 h at 37 °C. Ethanol (250 µL) was added to precipitate serum proteins, and the samples were centrifuged at 14 000 × g for 20 min at 4 °C. Subsequently, 150 µL of supernatant of each sample was analyzed with analytical HPLC and ESI‐MS/MS. HPLC condition: gradient: 100% solution A to 0% solution A from 0 to 60 min; flow rate: 1 mL min^−1; detector wavelength: 214 nm. Each sample had two replicates.
The compound remaining ratio was calculated as (7) Compoundremaining%=CompoundPeakAreanotat0h/CompoundPeakAreaat0h×100%

A word on the IC50: it is the concentration needed to halve the response being measured. A higher IC50 goes with lower potency. Take FFPKIFDDLSSILPKIL-NH2 [compound 266]: the IC50 in the series on H838 cell line, with HMEC-1 normal cell line, with HT-1080 cell line, in the series with HaCaT normal cell line, in the series with MRC-5 normal cell line and in the series with H460 cell line [1] was over 100 µM each time. Besides, in the series on HEK-293 normal cell line, the IC50 is over 100 µM. Besides, the “HC10 (concentration causing 10% of erythrocytes lysis)” value with erythrocytes is recorded as over 100 µM.
`CC[C@H](C)[C@H](NC(=O)[C@H](CCCCN)NC(=O)[C@@H]1CCCN1C(=O)[C@H](CC(C)C)NC(=O)[C@@H](NC(=O)[C@H](CO)NC(=O)[C@H](CCC(=O)N1CCCCC1)NC(=O)[C@H](CC(C)C)NC(=O)[C@H](CC(=O)O)NC(=O)[C@H](CC(=O)O)NC(=O)[C@H](Cc1ccccc1)NC(=O)[C@@H](NC(=O)[C@H](CCCCN)NC(=O)[C@@H]1CCCN1C(=O)[C@H](Cc1ccccc1)NC(=O)[C@@H](N)Cc1ccccc1)[C@@H](C)CC)[C@@H](C)CC)C(=O)N[C@@H](CC(C)C)C(N)=O` [174-3] (H-FFPKIFDDLE(Piperidide)SILPKIL-NH2): the IC50 with H838 cell line was determined as 39.5 µM; with HMEC-1 normal cell line, 52.9 ± 7.31 µM; in the series with HT-1080 cell line, 57.6 ± 8.46 µM; in the series on HaCaT normal cell line, 87 µM; in the series with MRC-5 normal cell line, 95.8 µM; in the series on HEK-293 normal cell line it was 32.6 µM. The IC50 in the series on H460 cell line [2] turned out to be 23.7 ± 1.03 µM; in series [3], 28.9 ± 3.53 µM; in series [4], 29.2 ± 2.29 µM; in series [5] it was 17.7 ± 2.86 µM; in [6] it was 24.2 ± 2.13 µM. The “HC10 (concentration causing 10% of erythrocytes lysis)” value with erythrocytes came to 51.52 µM.
Regarding FFPKIFDDLFSILPKIL-NH2 [compound 228], the IC50 with H838 cell line turned out to be 26.4 ± 1.78 µM; in the series with HMEC-1 normal cell line, 30.7 ± 3.14 µM; in the series with HT-1080 cell line, 30.5 ± 6.05 µM; with HaCaT normal cell line it was 34 ± 2.66 µM; with MRC-5 normal cell line, 34.1 ± 2.32 µM; with H460 cell line [1] it was 17.5 ± 0.91 µM. In addition, it took 13.8 ± 1.42 µM to reach half-maximal inhibition in the series with HEK-293 normal cell line (IC50). In the series with erythrocytes, the “HC10 (concentration causing 10% of erythrocytes lysis)” value was 14.57 µM.
With `CC[C@H](C)[C@H](NC(=O)[C@H](CCCCN)NC(=O)[C@@H]1CCCN1C(=O)[C@H](CC(C)C)NC(=O)[C@@H](NC(=O)[C@H](CO)NC(=O)[C@H](CCC(=O)N1CCCCC1)NC(=O)[C@H](CC(C)C)NC(=O)[C@H](CC(=O)O)NC(=O)[C@H](CC(=O)O)NC(=O)[C@H](Cc1ccccc1)NC(=O)[C@@H](NC(=O)[C@H](CCCCN)NC(=O)[C@@H]1CCCN1C(=O)[C@H](Cc1ccccc1)NC(=O)[C@H](Cc1ccccc1)NC(=O)[C@H](CCCCNC(C)=O)NC(=O)[C@H](C)N)[C@@H](C)CC)[C@@H](C)CC)C(=O)N[C@@H](CC(C)C)C(N)=O` [239-4-Ac] (H-AK(Ac)FFPKIFDDLE(Piperidide)SILPKIL-NH2), in series [7], the “degradation in human serum, comparison in words” value is given as “significantly more prone to degradation”.
In the case of `CC[C@H](C)[C@H](NC(=O)[C@H](CCCCN)NC(=O)[C@@H]1CCCN1C(=O)[C@H](CC(C)C)NC(=O)[C@@H](NC(=O)[C@H](CO)NC(=O)[C@H](CCC(=O)N1CCCCC1)NC(=O)[C@H](CC(C)C)NC(=O)[C@H](CC(=O)O)NC(=O)[C@H](CC(=O)O)NC(=O)[C@H](Cc1ccccc1)NC(=O)[C@@H](NC(=O)[C@H](CCCCN)NC(=O)[C@@H]1CCCN1C(=O)[C@H](Cc1ccccc1)NC(=O)[C@H](Cc1ccccc1)NC(=O)[C@H](CCCCN)NC(=O)[C@H](C)N)[C@@H](C)CC)[C@@H](C)CC)C(=O)N[C@@H](CC(C)C)C(=O)NCC(=O)N1CCC[C@H]1C(=O)N[C@@H](CC(C)C)C(=O)NCC(=O)N[C@@H](CC(C)C)C(=O)N[C@@H](C)C(=O)NCC(=O)NCCOCCOCCOCCOCCC(=O)NCCOCCOCCOCCOCCC(=O)NCCOCCOCCOCCOCCC(=O)NCCOCCOCCOCCOCCC(N)=O` [compound 247] (H-AKFFPKIFDDLE(Piperidide)SILPKILGPLGLAG[PEG4][PEG4][PEG4][PEG4]-NH2), the IC50 is over 100 µM in the series with HMEC-1 normal cell line; over 100 µM in the series on HaCaT normal cell line; over 100 µM in the series on MRC-5 normal cell line; 29.2 ± 1.33 µM in the series with H460 cell line [1]; 51.9 ± 5.64 µM with HEK-293 normal cell line. In the series on erythrocytes, the “HC10 (concentration causing 10% of erythrocytes lysis)” value is reported as over 100 µM.
Turning to “FFPLIFGALSSILPKIL-NH2 [compound 111, Temporin‐HLa]”, the IC50 with H838 cell line was found to be 11 ± 1.06 µM; with HMEC-1 normal cell line it was 13.5 ± 0.8 µM; with HT-1080 cell line it was 7.37 ± 0.7 µM; with HaCaT normal cell line it was 13.6 ± 0.91 µM; in the series with MRC-5 normal cell line, 26.3 ± 2.59 µM; in the series on H460 cell line [1] it was 6.03 ± 0.18 µM. Besides, the IC50 in the series with HEK-293 normal cell line came to 8.03 ± 1.1 µM; in series [3] it was 5.14 ± 0.22 µM; in [4] it was 5.24 ± 0.15 µM; in series [5], 5.17 ± 0.16 µM; in [6] it was 5.54 ± 0.04 µM. The “HC10 (concentration causing 10% of erythrocytes lysis)” value in the series with erythrocytes is reported as 6.59 µM.
